Key:
K. pneumoniae = assay: Protective effect in immunodepressed mice experimentally infected with K. pneumoniae; type: in vivo; settings: for % Mortality: cyclophosphamide immunodepressed
Text: (§1) Test 2 Assessment of the protective effect induced by ST 657, ST 733, ST 754 and ST 789 on immunodepressed mice experimentally infected.
(§2) Male CD1 mice (Charles River, Italy) of different ages were used: mice aged 6 and 12 weeks infected with Klebsiella and mice aged 7 weeks infected with Salmonella (10 mice per group).
(§3) Systemic infection in mice was induced via i.p. inoculum of either a pathogenic strain of Klebsiella (K. pneumoniae) or a pathogenic strain of Salmonella (S. typhimurium), which were able to provoke death of the animals within 5 and 20 days, respectively, following the challenge.
(§4) Infective doses prepared from overnight broth cultures corresponding to 1.5×10^5 and 3.5×10^5 live cells of K. pneumoniae, and 1×10^3 live cells of S. typhimurium were suspended in 0.2 mL of 5% gastric mucine and then injected.
(§5) The immunosuppressor (cyclophosphamide) was administered i.p. in 0.2 mL of sterile saline, 100 mg/kg, 5 days before the infective challenge.
(§6) The compounds were administered i.p., 0.25 and 25 mg/kg/day, from day -5 to day -1 (challenge at day 0).
(§7) The results obtained are expressed as % mortality and statistically processed with the Fisher's exact test (Biostatistics in Pharmacology, vol. II, Pergamon Press).

Salmonella typhimurium = assay: Protective effect in immunodepressed mice experimentally infected with Salmonella typhimurium; type: in vivo; settings: Salmonella typhimurium 1 × 10^3 cells
Text: as §1, §2, §3, §4, §5, §6, §7

rat granulocytes = assay: "In vitro-ex vivo" chemotactic activity of rat granulocytes; settings: 25 mg/kg/day i.p. from day -5 to day -1, blood sample at day 0
Protocol: Test 3 Assessment of the "in vitro" and "in vitro-ex vivo" effect of ST 657 and ST 789 on the chemotactic activity of rat granulocytes.
Male Fisher-344 rats aged about 3 months were used (6-8 animals for each experimental group).
The compounds were tested "in vitro", 10 mcg/mL, and "in vitro-ex vivo" following administration of 25 mg/kg/day from day -5 to day -1 (taking of blood sample at day 0).
The experimental procedure is described by Cates, L. K. et al (1987), Modified Boyden chamber method of measuring polymorphonuclear leukocyte chemotaxis, Leukocyte Chemotaxis, Raven Press, N.Y. 67.
Blood samples were collected from animals sacrificed by decapitation. Following passage through heparinized gauze, blood was diluted (1:1) with dextran (1.5% in saline) and allowed to sediment for 90 minutes.
The concentration of the granulocytes, collected from blood via known techniques, was adjusted to 2×10^6 cells/mL in Hank's medium. They were then seeded on 3 μMillipore filters which were placed in migration chambers. […]
Microscopic examination of samples versus control allows the distance (in μm) run by the two most forward granulocytes in the framed field to be determined. Granulocyte migration is determined by calculating the mean value of 10 readings performed as a whole on two filters per sample. […]

splenocytes = assay: "In vitro-ex vivo" mytogen (PHA)-induced splenocyte proliferation in mice
Protocol: Test 5 Assessment of the "in vitro-ex vivo" effect of ST 733 and ST 789 on the mytogen (PHA)-induced splenocyte proliferation in mice.
Male B6 D2 F1 mice (Charles River, Italy) aged 7-8 weeks (4 animals per group) were used.
PHA (phytohemagglutinine) active on T lymphocytes was used as mytogen. The mytogen was tested at three different concentrations (suboptimal, optimal, superoptimal): 0.5, 2 and 4 mcg/mL/well.
The compounds were administered i.p. 25 mg/kg/day from day -5 to day -1 (spleen excision at day 0).
The experimental procedure was conducted substantially as described by Kirchner et al, "Splenic suppressor macrophages induced in mice by injection of C. parvum", J. Immunol., 1975, 115:1212.
In particular, the cell suspensions obtained from the spleens of the animals of the same group were pooled and the cell concentration was adjusted to 5×10^6 cell/mL.
To volumes of 0.1 mL of each sample, equal volumes of the mytogen preparation were added so as to obtain the previously indicated final concentrations.
Each sample was prepared in triplicate in U-bottom microtiters. A control, to which 0.1 mL of medium was added instead of the mytogen, was also prepared. The control permits the extent of spontaneous proliferation in the absence of stimulation to be assessed.
The samples were incubated at 37° C. for 48 hours and then they were pulsed with 20 μL ^3 H-TdR (25 μCi/mL).
After 18 hours of further incubation, the cells were collected on filters and counted in a beta-counter to evaluate the incorporated radioactivity (in cpm).
The results for each sample are expressed by calculating the value of the area under the curve (AUC) obtained by plotting the values of the incorporated radioactivity (in cpm) versus the three concentrations of mytogen.
In addition to AUC, also the stimulation index (SI) is considered, that is defined as follows: [formula]

DTH reaction vs. SRBC = assay: Delayed type hypersensitivity test (DTH) vs. SRBC in mice; type: in vivo; settings: 25 mg/kg/day i.p. from day -3 to day +3 respect to the immunization
Protocol: Test 6 Assessment of the effect of ST 785 and ST 789 on the delayed type hypersensitivity test (DTH).
Male B6 D2 F1 mice (Charles River, Italy) aged 6, 12 and 16 weeks (8 animals per group) were used.
The compounds were administered i.p., 25 mg/kg/day from day -3 to day +3 (immunization at day 0). Immunization was carried out by s.c. injection in the upper dorsal zone of the animals of 0.2 mL of SRBC (5×10^7 cells/mL).
Four days following the sensitizing injection, the animals were administered the challenge injection to bring about the delayed hypersensibility reaction. 50 μL of SRBC solution (2×10^9 cells/mL) were injected in the left hind foot-pad of the mice. The contralateral foot-pad received an equal volume of PBS. 24 hours after the challenge injection, the animals were sacrificed by cervical dislocation. The legs were amputated and the differences in weight between the left leg (treated with the challenge injection) and the contralateral leg were evaluated.
The mean of weight differences in the legs of the animals of the same experimental group was determined; the differences in the mean values calculated for each experimental group were processed using Student's "t" test (Biostatistics in Pharmacology, loc cit.).
The experimental procedure which was used is described by Miller, T. E. et al, (1973), Immunopotentiation with BCG. Modulation of the response to sheep red blood cells. J. Cancer Inst., 51:1669.

[1] = K. pneumoniae 1.5 × 10^5 cells, animals aged 6 weeks, 0.25 mg/kg/day i.p. day -5 to -1
[2] = K. pneumoniae 1.5 × 10^5 cells, animals aged 6 weeks, 25 mg/kg/day i.p. day -5 to -1
[3] = K. pneumoniae 3.5 × 10^5 cells, animals aged 12 weeks, 0.25 mg/kg/day i.p. day -5 to -1
[4] = K. pneumoniae 3.5 × 10^5 cells, animals aged 12 weeks, 25 mg/kg/day i.p. day -5 to -1
[5] = 0.25 mg/kg/day i.p. day -5 to -1
[6] = 25 mg/kg/day i.p. from day -5 to day -1

Molecule	% Mortality (K. pneumoniae; [1]) [%]	% Mortality (K. pneumoniae; [2]) [%]	% Mortality (K. pneumoniae; [3]) [%]	% Mortality (K. pneumoniae; [4]) [%]	protective effect in immunodepressed infected mice (in words) (K. pneumoniae; comparison with ST 789, K. pneumoniae and S. typhimurium tables)	% Mortality (Salmonella typhimurium; [5]) [%]	% Mortality (Salmonella typhimurium; 25 mg/kg/day i.p. day -5 to -1) [%]	"in vitro-ex vivo" chemotaxis (μ ± S.E.) (rat granulocytes) [μ]	Body weight (splenocytes; [6]) [g]	Spleen weight (splenocytes; [6]) [mg]	Thymus weight (splenocytes; [6]) [mg]	PHA AUC (area under curve, cpm versus three mytogen concentrations) (splenocytes; PHA 0.5, 2 and 4 mcg/mL/well, 25 mg/kg/day i.p. from day -5 to day -1)	PHA I.S. (stimulation index) (splenocytes; PHA-induced proliferation, 25 mg/kg/day i.p. from day -5 to day -1)	mytogen-induced proliferation versus the controls (in words) (splenocytes; PHA, 25 mg/kg/day i.p.)	Splenocytes No. (× 10^7) (splenocytes; pooled samples, 25 mg/kg/day i.p. from day -5 to day -1)	Mean difference in weight (mg ± S.E.) between treated and untreated foot-pads (DTH reaction vs. SRBC) [mg]
N-5-(ipoxantin-9-yl) pentyloxycarbonyl glycyl L-aspartate disodium salt [ST 657]	50	20	33	60	protective effect more potent than ST 789	0	0	89.3 ± 1.95								
N=C(N)NCCC[C@H](NC(=O)OCCCCCn1cnc2c(=O)[nH]cnc21)C(=O)O [ST 789, N-5-(ipoxantin-9-yl) pentyloxycarbonylarginine, reference compound]	50	40	50	60		10	20	79.8 ± 1.53	23.9 ± 0.1	87.0 ± 4.5	64.5 ± 4.6	114 × 10^-3	1.30	slight increase	10.0 × 10^7	34.9 ± 0.76

— patent US5298621A, “Oligopeptide derivatives of ipoxantine endowed with immunomodulating activity and pharmaceutical compositions containing same” (Sigma-Tau Industrie Farmaceutiche Riunite S.p.A., priority 1990, dated 1994)
